Several values for one entry are separate records, joined by “and”; a condition that tells them apart may be missing. Equal entries are not always repeated. Toxic doses and inconclusive results are not listed. No stated cut-off is given here; in the data, active means T/C of 150% or more; inactive means T/C below 125%.
Tested on: L1210 leukemia ip in BDF1 mice, survival T/C
Assay: NCI In Vivo Anticancer Drug Screen. Data for tumor model L1210 Leukemia (intraperitoneal) in B6D2F1 (BDF1) mice
Conditions: endpoint: mean survival time, higher = longer survival
Procedure, shortened: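 Survival endpoint. Drug-treated group vs vehicle group, expressed as T divided by C. Tumor passaged by transplantation.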

[1] = dose: 50.0 mg/kg/injection, schedule: Q01DX001 (ip), vehicle: saline
[2] = dose: 200.0 mg/kg/injection, schedule: Q01DX001 (ip), vehicle: saline
[3] = dose: 100.0 mg/kg/injection, schedule: Q01DX001 (ip), vehicle: saline
[4] = dose: 400.0 mg/kg/injection, schedule: Q01DX001 (ip), vehicle: saline

Measured: T/C

CC1CN1P(=S)(N1CC1C)N1CC1C (stereo unspecified)
inactive: dose: 2.5 mg/kg/injection, schedule: Q01DX Z (ip), vehicle: saline 92 % of control | dose: 3.75 mg/kg/injection, schedule: Q01DX015 (ip), vehicle: saline 104 % of control | dose: 5.0 mg/kg/injection, schedule: Q01DX Z (ip), vehicle: saline 95 % of control | dose: 6.0 mg/kg/injection, schedule: Q01DX001 (ip), vehicle: saline 100 % of control | dose: 7.5 mg/kg/injection, schedule: Q01DX015 (ip), vehicle: saline 110 % of control | dose: 10.0 mg/kg/injection, schedule: Q01DX Z (ip), vehicle: saline 98 % of control | dose: 12.0 mg/kg/injection, schedule: Q01DX001 (ip), vehicle: saline 113 % of control | dose: 12.0 mg/kg/injection, schedule: Q01DX015 (ip), vehicle: saline 107 % of control | dose: 20.0 mg/kg/injection, schedule: Q01DX Z (ip), vehicle: saline 101 % of control | dose: 24.0 mg/kg/injection, schedule: Q01DX001 (ip), vehicle: saline 104 % of control | dose: 48.0 mg/kg/injection, schedule: Q01DX001 (ip), vehicle: saline 108 % of control | [1] 108 % of control | dose: 60.0 mg/kg/injection, schedule: Q01DX015 (ip), vehicle: saline 102 % of control | dose: 72.0 mg/kg/injection, schedule: Q01DX Z (ip), vehicle: saline 117 % of control | dose: 96.0 mg/kg/injection, schedule: Q01DX015 (ip), vehicle: saline 97 % of control | dose: 96.0 mg/kg/injection, schedule: Q01DX Z (ip), vehicle: saline 90 % of control | [2] 112 % of control | dose: 216.0 mg/kg/injection, schedule: Q01DX001 (ip), vehicle: saline 107 % of control
active: dose: 48.0 mg/kg/injection, schedule: Q01DX015 (ip), vehicle: saline 164 % of control | dose: 144.0 mg/kg/injection, schedule: Q01DX001 (ip), vehicle: saline 152 % of control and 153 % of control

Cc1cc(N(CCOS(C)(=O)=O)CCOS(C)(=O)=O)ccc1C=Nc1ccc(-c2nc(Cc3ccccc3)sc2C)cc1
inactive: dose: 12.5 mg/kg/injection, schedule: Q01DX009 (ip), vehicle: Klucel (hydroxypropylcellulose) (HPC) 115 % of control | dose: 66.0 mg/kg/injection, schedule: Q04DX003 (ip), vehicle: Klucel (hydroxypropylcellulose) (HPC) 115 % of control

ICCC(c1ccccc1)(c1ccccc1)c1ccccc1
inactive: [1] 108 % of control | [3] 96 % of control | [2] 96 % of control | [4] 96 % of control

COCn1cnc([N+](=O)[O-])c1Br
inactive: dose: 100.0 mg/kg/injection, schedule: Q01DX001 (ip), vehicle: acetone 101 % of control | dose: 100.0 mg/kg/injection, schedule: Q01DX009 (ip), vehicle: saline with Tween-80 96 % of control | dose: 200.0 mg/kg/injection, schedule: Q01DX001 (ip), vehicle: acetone 90 % of control | dose: 200.0 mg/kg/injection, schedule: Q01DX009 (ip), vehicle: saline with Tween-80 93 % of control | dose: 400.0 mg/kg/injection, schedule: Q01DX001 (ip), vehicle: acetone 100 % of control | dose: 400.0 mg/kg/injection, schedule: Q01DX009 (ip), vehicle: saline with Tween-80 86 % of control

Cc1ccc(CCNc2ncnc(Cl)c2N)cc1
inactive: dose: 50.0 mg/kg/injection, schedule: Q01DX001 (ip), vehicle: other 88 % of control | dose: 100.0 mg/kg/injection, schedule: Q01DX001 (ip), vehicle: other 92 % of control

CC(=O)Nc1ccc(OC(=O)c2cccc([N+](=O)[O-])c2)cc1
inactive: [3] 107 % of control | [2] 101 % of control | [4] 104 % of control

O=C(Nc1ccccc1)Nc1ccc(Cl)c(Cl)c1
inactive: dose: 100.0 mg/kg/injection, schedule: Q01DX001 (ip), vehicle: saline with Tween-80 95 % of control | dose: 100.0 mg/kg/injection, schedule: Q01DX009 (ip), vehicle: Klucel (hydroxypropylcellulose) (HPC) 101 % of control | dose: 100.0 mg/kg/injection, schedule: Q04DX003 (ip), vehicle: Klucel (hydroxypropylcellulose) (HPC) 107 % of control | dose: 200.0 mg/kg/injection, schedule: Q01DX001 (ip), vehicle: saline with Tween-80 97 % of control | dose: 200.0 mg/kg/injection, schedule: Q01DX009 (ip), vehicle: Klucel (hydroxypropylcellulose) (HPC) 94 % of control | dose: 200.0 mg/kg/injection, schedule: Q04DX003 (ip), vehicle: Klucel (hydroxypropylcellulose) (HPC) 89 % of control | dose: 400.0 mg/kg/injection, schedule: Q01DX001 (ip), vehicle: saline with Tween-80 90 % of control | dose: 400.0 mg/kg/injection, schedule: Q01DX009 (ip), vehicle: Klucel (hydroxypropylcellulose) (HPC) 95 % of control | dose: 400.0 mg/kg/injection, schedule: Q04DX003 (ip), vehicle: Klucel (hydroxypropylcellulose) (HPC) 86 % of control
